Results on three compounds are retold here after patent publication US20170368052A1, “CRYSTAL FORMS OF APOMORPHINE AND USES THEREOF” (NeuroDerm, Ltd., priority 2014, published 2017).

Format in all cases: physicochemical
The nature of data set [1]: Equilibrium desiccator analysis at 75-80% RH. The settings on record: 75 to 80% RH at 18-23° C., after 1 h.
The nature of data set [2]: Stability of the reaction mixture at reflux in IPA with/without ascorbic acid-6-palmitate (HPLC). The settings on record: solution at reflux with ascorbic acid-6-palmitate. On the procedure: In this case, the base was added under reflux and the procedure compared with and without ascorbic acid-6-palmitate as an antioxidant (Table 7).
The nature of data set [3]: Process hold-point stability (purity profile). As for the experimental part:
An optimized non-aqueous procedure is provided below and shown in Scheme 4. • 1. Add apomorphine hydrochloride (1.0 wt), ascorbic acid-6-palmitate (0.01 wt), IPA (30 vol) and stir at 18-23° C. • 2. Vacuum/nitrogen purge the vessel 3× at 18-23° C. and place under a flow of nitrogen. • 3. Heat the slurry to 60-65° C. • 4. Add 3-amino-1-propanol (1.1 eq, 0.25 vol) maintaining 60-70° C. (target 60-65° C.). • 5. As required, cool the reaction mixture to 60-65° C. […] Stir for 15-20 minutes and check for full dissolution. • 7. On full dissolution, clarify the reaction mixture through a ≦1 μm filter and line rinse with IPA (3 vol) at 60-65° C. (Note: the reaction solution is highly unstable to air while hot, therefore total exclusion of air is required.) • 8. Concentrate the reaction mixture under reduced pressure to approximately 10 vol maintaining 55-65° C. • 9. […] Cool the slurry to 68-71° C. and age for 1 h (crystallization is expected during the cool down period approximately 72° C.). • 11. Slow the stirring for the remainder of the preparation to the minimum effective rate and check for crystallization: if crystallization has not occurred, seed the reaction with 0.1 wt % of seeds and age for 1 h. • 12. Cool the slurry to 18-23° C. over 5-6 h at an approximately constant rate. • 13. Age the slurry at 18-23° C. for 2-16 h. • 14. […]

As to `CN1CCc2cccc3c2[C@H]1Cc1ccc(O)c(O)c1-3` [A0505-110-D1, apomorphine free base], the Weight increase in data set [1] was determined as 2.0 % w/w.

Regarding `CN1CCc2cccc3c2C1Cc1ccc(O)c(O)c1-3` (stereo not shown) [A0513-98-01], in data set [2], the “% area: RRT 1.00” value is on record as 99.83 % area, the “% area: RRT 1.25” value was found to be 0.04 % area, the “% area: RRT 1.71” value worked out at 0.06 % area and the “% area: RRT 1.76” value is 0.04 % area. Moreover, in data set [3] (reaction mixture held 2 h at reflux (83° C.)), the “Change in purity profile” value was “no significant change”.

Consider `CC(C)O.CN1CCc2cccc3c2C1Cc1ccc(O)c(O)c1-3` (stereo not shown) [A0513-126, apomorphine free base IPA solvate], for which the “Change in purity profile of the material isolated” value in data set [3] (distillation over 6 h at 60-65° C.) was “no significant change”.
